Key:
Test in all cases: relative viability (nuclei count vs DMSO), 5 days (fraction); higher = more cells survive
BAY61-3606 + Palbociclib = compound: COC1=C(C=C(C=C1)C2=CC3=NC=CN3C(=N2)NC4=C(C=CC=N4)C(=O)N)OC [BAY61-3606] + CC(=O)c1c(C)c2cnc(Nc3ccc(N4CCNCC4)cn3)nc2n(C2CCCC2)c1=O [Palbociclib] (partner 0.5 µM)
In short: (§1)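 The day after seeding in 1536-well plates, lung cancer cell lines were treated by pin tool with a single drug, or with a fixed anchor-drug dose together with five library-drug doses (not always all listed) in √10 steps. After 5 days, a combined fix-and-stain solution (final 0.05% Triton X-100, 1% formaldehyde, 1 ug/ml Hoechst) was added. Nuclei counted on 4× images gave relative viability as treated counts over vehicle counts, reported as the median of duplicate plates.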

BAY61-3606 + Crizotinib = compound: COC1=C(C=C(C=C1)C2=CC3=NC=CN3C(=N2)NC4=C(C=CC=N4)C(=O)N)OC [BAY61-3606] + C[C@@H](Oc1cc(-c2cnn(C3CCNCC3)c2)cnc1N)c1c(Cl)ccc(F)c1Cl [Crizotinib] (partner 1 µM)
In short: as §1

Doxorubicin + Bortezomib = compound: COc1cccc2c1C(=O)c1c(O)c3c(c(O)c1C2=O)C[C@@](O)(C(=O)CO)C[C@@H]3O[C@H]1C[C@H](N)[C@H](O)[C@H](C)O1 [Doxorubicin] + CC(C)C[C@H](NC(=O)[C@H](Cc1ccccc1)NC(=O)c1cnccn1)B(O)O [Bortezomib] (partner 0.002 µM)
In short: as §1

Doxorubicin + Vorinostat = compound: COc1cccc2c1C(=O)c1c(O)c3c(c(O)c1C2=O)C[C@@](O)(C(=O)CO)C[C@@H]3O[C@H]1C[C@H](N)[C@H](O)[C@H](C)O1 [Doxorubicin] + O=C(CCCCCCC(=O)Nc1ccccc1)NO [Vorinostat] (partner 1 µM)
In short: as §1

| Cell Line | relative viability (BAY61-3606 + Palbociclib; first compound 0.02 µM) | relative viability (BAY61-3606 + Palbociclib; first compound 0.06325 µM) | relative viability (BAY61-3606 + Palbociclib; first compound 0.2 µM) | relative viability (BAY61-3606 + Palbociclib; first compound 0.6325 µM) | relative viability (BAY61-3606 + Palbociclib; first compound 2 µM) | relative viability (BAY61-3606 + Crizotinib; first compound 0.02 µM) | relative viability (BAY61-3606 + Crizotinib; first compound 0.06325 µM) | relative viability (BAY61-3606 + Crizotinib; first compound 0.2 µM) | relative viability (BAY61-3606 + Crizotinib; first compound 0.6325 µM) | relative viability (BAY61-3606 + Crizotinib; first compound 2 µM) | relative viability (Doxorubicin + Bortezomib; first compound 0.001 µM) | relative viability (Doxorubicin + Bortezomib; first compound 0.003162 µM) | relative viability (Doxorubicin + Bortezomib; first compound 0.01 µM) | relative viability (Doxorubicin + Bortezomib; first compound 0.03162 µM) | relative viability (Doxorubicin + Bortezomib; first compound 0.1 µM) | relative viability (Doxorubicin + Vorinostat; first compound 0.001 µM) | relative viability (Doxorubicin + Vorinostat; first compound 0.003162 µM) | relative viability (Doxorubicin + Vorinostat; first compound 0.01 µM) | relative viability (Doxorubicin + Vorinostat; first compound 0.03162 µM) | relative viability (Doxorubicin + Vorinostat; first compound 0.1 µM) |
| --- | --- | --- | --- | --- | --- | --- | --- | --- | --- | --- | --- | --- | --- | --- | --- | --- | --- | --- | --- | --- |
| HCC-44 | 0.959 | 0.941 | 0.924 | 0.968 | 1.13 | 0.749 | 0.829 | 0.777 | 0.907 | 0.823 | 0.947 | 0.988 | 0.891 | 0.949 | 0.828 | 1.1 | 1.15 | 1.1 | 1.12 | 1.12 |
| HCC-78 | 0.438 | 0.431 | 0.486 | 0.44 | 0.522 | 0.385 | 0.308 | 0.317 | 0.343 | 0.367 | 0.322 | 0.532 | 0.419 | 0.392 | 0.562 | 0.445 | 0.481 | 0.407 | 0.51 | 0.414 |
| HCC-366 | 0.44 | 0.46 | 0.324 | 0.326 | 0.255 | 0.506 | 0.495 | 0.566 | 0.461 | 0.162 | – | 1.06 | 1.05 | 0.326 | 0.0968 | 0.279 | 0.403 | 0.306 | 0.211 | 0.122 |
| HCC-827 | 0.514 | 0.456 | 0.467 | 0.484 | 0.234 | 0.938 | 0.952 | 0.942 | 0.974 | 0.965 | 1.05 | 1.03 | 1.07 | 1.01 | 0.956 | 0.559 | 0.854 | 0.856 | 0.774 | 0.641 |
| HOP-62 | – | 0.465 | 0.459 | 0.348 | 0.346 | 0.928 | – | 0.823 | 1.06 | 0.716 | 0.779 | 0.864 | 0.657 | 0.767 | 0.632 | 0.515 | 0.605 | 0.599 | 0.538 | 0.572 |
| IA-LM | – | – | – | – | – | 1.04 | 0.865 | – | 0.987 | 0.67 | 0.819 | 0.877 | 0.648 | 0.404 | 0.136 | 0.837 | 1.21 | 0.937 | 0.946 | 0.975 |
| LC-2-ad | 0.479 | 0.516 | 0.454 | 0.532 | 0.453 | – | 0.384 | 0.447 | 0.406 | 0.348 | 1.01 | 0.962 | 0.995 | 0.834 | 0.544 | 0.699 | 0.714 | 0.624 | 0.637 | 0.664 |
| LK-2 | 0.641 | 0.74 | 0.822 | 0.697 | 0.567 | 0.227 | 0.216 | 0.228 | 0.202 | 0.201 | – | – | – | – | – | 0.318 | 0.311 | 0.266 | 0.23 | 0.307 |
| NCI-H358 | 0.123 | 0.143 | 0.136 | 0.125 | 0.101 | 0.505 | 0.342 | 0.373 | 0.294 | 0.162 | – | – | – | – | – | 0.838 | 0.679 | 0.407 | 0.138 | 0.101 |
| NCI-H522 | 0.938 | 0.823 | 1.23 | 0.982 | 0.704 | – | – | – | – | – | – | – | – | – | – | 0.869 | 0.93 | 0.716 | 0.786 | 0.878 |
| NCI-H596 | – | – | – | – | – | 0.969 | 1.01 | 1.08 | 1.19 | 0.931 | – | 1.26 | 1.01 | 0.928 | 0.972 | 0.533 | 0.594 | 0.641 | 0.605 | 0.632 |
| NCI-H1299 | – | – | – | – | – | 0.98 | 0.961 | 1.01 | 0.992 | 0.93 | 1.04 | 1.03 | 1.01 | 1.07 | 0.962 | – | – | – | – | – |
| NCI-H1395 | 0.702 | 0.598 | 0.608 | 0.682 | 0.59 | – | – | – | – | – | – | – | – | – | – | 0.551 | 0.688 | 0.825 | 0.572 | 0.493 |
| NCI-H1563 | – | – | – | – | – | 0.906 | 0.868 | 0.882 | 0.948 | 0.758 | 0.716 | 0.772 | 0.594 | 0.515 | 0.421 | – | – | – | – | – |
| NCI-H1648 | 0.251 | 0.259 | 0.265 | – | 0.276 | – | – | – | – | – | – | – | – | – | – | 0.421 | 0.376 | 0.468 | 0.285 | 0.467 |
| NCI-H1703 | – | – | – | – | – | 0.76 | 0.449 | 0.661 | 0.353 | 0.343 | 0.234 | 0.324 | 0.25 | 0.165 | 0.0968 | – | – | – | – | – |
| NCI-H1792 | 0.677 | 0.61 | 0.659 | 0.747 | 0.698 | 0.944 | 1.03 | 0.777 | 0.947 | 1.08 | 0.929 | 1.1 | 1 | 0.898 | 0.924 | – | – | – | – | – |
| NCI-H1793 | 0.27 | 0.283 | 0.337 | 0.335 | 0.474 | – | – | – | – | – | – | – | – | – | – | – | 0.867 | 0.728 | 0.659 | 0.731 |
| NCI-H1944 | 0.344 | 0.313 | 0.31 | 0.338 | 0.213 | 1.08 | 1.04 | 0.912 | 1.07 | 0.637 | – | – | – | – | – | 0.554 | 0.632 | 0.541 | 0.416 | 0.497 |
| NCI-H2170 | 0.338 | 0.404 | 0.425 | 0.412 | 0.306 | 1.27 | 1.27 | 1.19 | 1.16 | 0.87 | – | – | – | – | – | 0.737 | 0.939 | 0.872 | 0.702 | 0.881 |
| NCI-H2342 | 0.469 | 0.48 | 0.517 | 0.602 | 0.63 | – | – | – | – | – | – | – | – | – | – | 0.757 | 0.845 | 0.692 | 0.535 | 0.696 |
| SK-MES-1 | 0.312 | 0.311 | 0.385 | 0.393 | 0.313 | 1.01 | 0.971 | 0.962 | 0.966 | 0.876 | – | – | – | – | – | 1.04 | 1.15 | 0.996 | 0.251 | 0.233 |
| SW 900 | 0.518 | – | – | 0.566 | 0.434 | – | – | – | – | – | – | – | – | – | – | – | 0.452 | 0.394 | 0.346 | 0.26 |

Reference: the supplement of paper PMC10307832
